In the CheMixHub viscosity set:

Experiment: xn = mol fraction of the nth substance listed

NC=O + O
viscosity [mPa·s]
Conditions | 101 kPa | 101.33 kPa
293.15 K, x1 = 0.0753 | 1.098 | –
293.15 K, x1 = 0.1519 | 1.195 | –
293.15 K, x1 = 0.2309 | 1.318 | –
293.15 K, x1 = 0.2959 | 1.446 | –
293.15 K, x1 = 0.3852 | 1.603 | –
298.15 K, x1 = 0.00687 | 0.921 | –
298.15 K, x1 = 0.1 | 0.9871 | –
298.15 K, x1 = 0.1001 | 1.044 | –
298.15 K, x1 = 0.1998 | 1.161 | –
298.15 K, x1 = 0.2 | 1.121 | –
298.15 K, x1 = 0.212 | 1.182 | –
298.15 K, x1 = 0.3 | 1.262 | –
298.15 K, x1 = 0.3003 | 1.315 | –
298.15 K, x1 = 0.304 | 1.283 | –
298.15 K, x1 = 0.3989 | 1.463 | –
298.15 K, x1 = 0.4 | 1.43 | –
298.15 K, x1 = 0.4997 | 1.698 | –
298.15 K, x1 = 0.5 | 1.631 | –
298.15 K, x1 = 0.551 | 2.101 | –
298.15 K, x1 = 0.5997 | 1.927 | –
298.15 K, x1 = 0.6 | 1.868 | –
298.15 K, x1 = 0.6029 | 2.275 | –
298.15 K, x1 = 0.692 | 2.142 | –
298.15 K, x1 = 0.7 | 2.138 | –
298.15 K, x1 = 0.8 | 2.471 | –
298.15 K, x1 = 0.8004 | 2.508 | –
298.15 K, x1 = 0.9 | 2.881 | –
298.15 K, x1 = 0.9013 | 2.906 | –
303.15 K, x1 = 0.0964 | – | 0.8965
303.15 K, x1 = 0.1998 | – | 1.015
303.15 K, x1 = 0.2994 | – | 1.15
303.15 K, x1 = 0.3996 | – | 1.298
303.15 K, x1 = 0.4999 | – | 1.474
303.15 K, x1 = 0.5995 | – | 1.662
303.15 K, x1 = 0.6999 | – | 1.878
303.15 K, x1 = 0.8001 | – | 2.139
303.15 K, x1 = 0.9 | – | 2.432
308.15 K, x1 = 0.0964 | – | 0.8135
308.15 K, x1 = 0.1 | 0.8181 | –
308.15 K, x1 = 0.1998 | – | 0.9213
308.15 K, x1 = 0.2 | 0.9244 | –
308.15 K, x1 = 0.2994 | – | 1.047
308.15 K, x1 = 0.3 | 1.047 | –
308.15 K, x1 = 0.3996 | – | 1.182
308.15 K, x1 = 0.4 | 1.183 | –
308.15 K, x1 = 0.4999 | – | 1.34
308.15 K, x1 = 0.5 | 1.342 | –
308.15 K, x1 = 0.5995 | – | 1.506
308.15 K, x1 = 0.6 | 1.523 | –
308.15 K, x1 = 0.6999 | – | 1.697
308.15 K, x1 = 0.7 | 1.731 | –
308.15 K, x1 = 0.8 | 2.002 | –
308.15 K, x1 = 0.8001 | – | 1.926
308.15 K, x1 = 0.9 | 2.307 | 2.18
313.15 K, x1 = 0.0964 | – | 0.7424
313.15 K, x1 = 0.1001 | 0.734 | –
313.15 K, x1 = 0.1998 | 0.835 | 0.8455
313.15 K, x1 = 0.2994 | – | 0.9584
313.15 K, x1 = 0.3003 | 0.949 | –
313.15 K, x1 = 0.3989 | 1.091 | –
313.15 K, x1 = 0.3996 | – | 1.08
313.15 K, x1 = 0.4997 | 1.23 | –
313.15 K, x1 = 0.4999 | – | 1.221
313.15 K, x1 = 0.5995 | – | 1.373
313.15 K, x1 = 0.5997 | 1.402 | –
313.15 K, x1 = 0.692 | 1.545 | –
313.15 K, x1 = 0.6999 | – | 1.543
313.15 K, x1 = 0.8001 | – | 1.746
313.15 K, x1 = 0.8004 | 1.813 | –
313.15 K, x1 = 0.9 | – | 1.967
313.15 K, x1 = 0.9013 | 2.102 | –
318.15 K, x1 = 0.0964 | – | 0.6812
318.15 K, x1 = 0.1 | 0.6761 | –
318.15 K, x1 = 0.1998 | – | 0.7768
318.15 K, x1 = 0.2 | 0.7811 | –
318.15 K, x1 = 0.2994 | – | 0.8815
318.15 K, x1 = 0.3 | 0.8781 | –
318.15 K, x1 = 0.3996 | – | 0.993
318.15 K, x1 = 0.4 | 0.9948 | –
318.15 K, x1 = 0.4999 | – | 1.121
318.15 K, x1 = 0.5 | 1.12 | –
318.15 K, x1 = 0.5995 | – | 1.259
318.15 K, x1 = 0.6 | 1.259 | –
318.15 K, x1 = 0.6999 | – | 1.409
318.15 K, x1 = 0.7 | 1.42 | –
318.15 K, x1 = 0.8 | 1.604 | –
318.15 K, x1 = 0.8001 | – | 1.59
318.15 K, x1 = 0.9 | 1.812 | 1.788
323.15 K, x1 = 0.0964 | – | 0.6275
323.15 K, x1 = 0.1998 | – | 0.7165
323.15 K, x1 = 0.2994 | – | 0.8121
323.15 K, x1 = 0.3996 | – | 0.9187
323.15 K, x1 = 0.4999 | – | 1.032
323.15 K, x1 = 0.5995 | – | 1.158
323.15 K, x1 = 0.6999 | – | 1.292
323.15 K, x1 = 0.8001 | – | 1.457
323.15 K, x1 = 0.9 | – | 1.629

NC=O + OCCO
viscosity [mPa·s]
Conditions | 293.15 K | 298.15 K | 303.15 K | 308.15 K | 313.15 K | 318.15 K
100 kPa, x1 = 0.1003 | 16.54 | 13.52 | 11.1 | – | – | –
100 kPa, x1 = 0.2002 | 13.55 | 10.99 | 9.12 | – | – | –
100 kPa, x1 = 0.299 | 11.22 | 8.878 | 7.232 | – | – | –
100 kPa, x1 = 0.3975 | 9.55 | 7.61 | 6.151 | – | – | –
100 kPa, x1 = 0.5027 | 7.99 | 6.541 | 5.273 | – | – | –
100 kPa, x1 = 0.6014 | 6.85 | 5.592 | 4.603 | – | – | –
100 kPa, x1 = 0.7027 | 5.827 | 4.71 | 3.99 | – | – | –
100 kPa, x1 = 0.7999 | 4.96 | 4.15 | 3.647 | – | – | –
100 kPa, x1 = 0.9014 | 4.413 | 3.817 | 3.402 | – | – | –
101 kPa, x1 = 0.0612 | 17.53 | 14.25 | 11.64 | 9.225 | 7.801 | 6.584
101 kPa, x1 = 0.1204 | 15.35 | 12.26 | 9.875 | 7.684 | 6.506 | 5.505
101 kPa, x1 = 0.1859 | 13.53 | 10.7 | 8.482 | 6.488 | 5.384 | 4.554
101 kPa, x1 = 0.3302 | 10.35 | 8.058 | 6.301 | 4.664 | 3.8 | 3.156
101 kPa, x1 = 0.4517 | 8.301 | 6.445 | 5.002 | 3.702 | 3.055 | 2.554
101 kPa, x1 = 0.5643 | 6.692 | 5.306 | 4.172 | 3.206 | 2.716 | 2.379
101 kPa, x1 = 0.6596 | 5.526 | 4.526 | 3.708 | 2.947 | 2.556 | 2.322
101 kPa, x1 = 0.7454 | 4.685 | 4.003 | 3.403 | 2.808 | 2.476 | 2.292
101 kPa, x1 = 0.8195 | 4.186 | 3.721 | 3.234 | 2.753 | 2.45 | 2.271
101 kPa, x1 = 0.8883 | 3.908 | 3.526 | 3.126 | 2.727 | 2.438 | 2.251
101 kPa, x1 = 0.9491 | 3.714 | 3.39 | 3.025 | 2.692 | 2.425 | 2.236
101 kPa, x2 = 0.0761 | – | – | – | 2.392 | – | –
101 kPa, x2 = 0.1538 | – | – | – | 2.439 | – | –
101 kPa, x2 = 0.2311 | – | – | – | 2.487 | – | –
101 kPa, x2 = 0.3245 | – | – | – | 2.636 | – | –
101 kPa, x2 = 0.4125 | – | – | – | 2.996 | – | –
101 kPa, x2 = 0.5236 | – | – | – | 4.026 | – | –
101 kPa, x2 = 0.6337 | – | – | – | 5.164 | – | –
101 kPa, x2 = 0.7468 | – | – | – | 6.594 | – | –
101 kPa, x2 = 0.8596 | – | – | – | 8.193 | – | –
